What all share (assay type): biochemical
Test [1] has as its system control plasma Patho II. Description: PT, Behring Coagulation Timer (PT.sec Thromborel S). The conditions noted are these: 0.75 sec, incubated 37° C., 90 min. How it is done: The coagulation time was determined using a Behring Coagulation Timer (PT.sec Thromborel S). Standard human plasma, the. control plasma Patho II (Behringwerke AG) and an FVII-deficient plasma were employed as samples. The spread was calculated from the ratio of the coagulation times of the Patho II and the StHPl, and the FVII sensitivity was calculated from the ratio of the coagulation times for FVII-MP and STHPL.
The coagulation time was determined using a Behring Coagulation Timer (PT.sec Thromborel S). Standard human plasma, the control plasma Patho II and an FVII-deficient plasma were employed as samples. The spread as calculated from the ratio of the coagulation times of the Patho II and the StHPl, and the FVII sensitivity was calculated from the ratio of the coagulation times for FVII-MP and STHPL.
(§1) Thromborel S Bulkware according to Example 8a) was short-time heated at a temperature of 120° C. using a dwell time of 0.75 sec and then adjusted to pH 7.5 with 0.16 mM sodium carbonate; different concentrations of chloramine T were subsequently added and the mixtures were incubated at 37° C. for 90 min. Stabilizers and 6 mM acetylcysteine were added to the solution. The pH value was adjusted to 6.5 and the coagulation time was determined using a Behring Coagulation Timer (PT.sec Thromborel S).
(§2) Standard human plasma, the control plasma Patho II and an FVII-deficient plasma were used as samples. The spread was calculated from the ratio of the coagulation times of the Patho II and the StHPl, and the FVII sensitivity was calculated from the ratio of the coagulation times for the FVII-MP and the STHPL.

Test [2] has as its system Standard human plasma. Described as above. The conditions noted are these: 0.75 sec, incubated 37° C., 90 min. How it is done: as §1, §2
In test [3] the test system is FVII-deficient plasma. Described as above. The conditions noted are these: 0.75 sec, incubated 37° C., 90 min. As to the method: as §1, §2
The test system of test [4] is FVII-deficient plasma. The test is described as follows: Quick's thromboplastin time (PT), Schnitger & Gross. The conditions noted are these: for Coagulation time FVII-MP / FVII sens.: FVII-MP/100%: 0.5 sec; for Coagulation time FVII-MF / FVII-sens. FVII-MP/100%: 0.75 sec, incubated 37° C., 90 min. How it is done: (§3) Quick's thromboplastin time (PT) was then determined using a Schnitger & Gross as follows:
(§4) Heat reagents and tubes to 37° C.;
(§5) Introduce […] of control plasma N or FVII-deficient plasma into the tubes;
(§6) Incubate for 1 min in the thermoblock;
(§7) Add 200 μl of thromboplastin and at the same time start the measuring operation; shake the tube briefly and place it in the measuring position of the Schnitger & Gross, and insert the electrode holder up to the limit stop;
(§8) Read off the coagulation time.
(§9) Quick's thromboplastin time (PT) is then determined using a Schnitger & Gross as follows:
(§10) Introduce 100 μl of plasma into the tubes;
(§11) Add 200 μl of thromboplastin and at the same time start the measuring operation;
(§12) shake the tube briefly, place it in the measuring position of the Schnitger & Gross, and insert the electrode holder up to the limit stop;

In test [5] the test system is Standard human plasma. The description is as above. How it is done: as §3, §4, §5, §6, §7, §8, §9, §10, §11, §12
Test [6] has as its system control plasma Patho II. The description is as above. As to the method:
as §9, §4, §10, §6, §11, §12, §8
The spread was calculated from the ratio of the coagulation times for the dilution of the StHPl and the StHPl, and the FVII sensitivity was calculated from the ratio of the coagulation times for FVII-MP and STHPL.
Standard human plasma, the control plasma Patho II and an FVII-deficient plasma were used as samples. The reagents were stored at 4° C. and 37° C. and the coagulation time was repeated after 7 and 14 days. The spread was calculated from the ratio of the coagulation times of the Patho II and the StHPl, and the FVII sensitivity was calculated from the ratio of the coagulation times for FVII-MP and the STHPL.

[7] abbreviates: 0.001 mM added to Thromborel S heated 120° C.
The mark [8] stands for this setting: 0.01 mM added to Thromborel S heated 120° C.
[9] abbreviates: 0.1 mM added to Thromborel S heated 120° C.
[10] abbreviates: 0.01 mM added to Thromborel S heated 95° C.
[11] abbreviates: 0.025 mM added to Thromborel S heated 95° C.
[12] abbreviates: 0.05 mM added to Thromborel S heated 95° C.
The mark [13] stands for this setting: 0.1 mM added to Thromborel S heated 95° C.
Where [14] appears, read: 0.5 mM added to Thromborel S heated 95° C.
Setting [15] is: 0.01 mM added to Thromborel S heated 95° C., 0.5 sec.
Where [16] appears, read: 0.025 mM added to Thromborel S heated 95° C., 0.5 sec.
Setting [17] is: 0.05 mM added to Thromborel S heated 95° C., 0.5 sec.
[18] abbreviates: 0.1 mM added to Thromborel S heated 95° C., 0.5 sec.
[19] abbreviates: 0.5 mM added to Thromborel S heated 95° C., 0.5 sec.
The mark [20] stands for this setting: 0.00003% added to Thromborel S heated 120° C.
Setting [21] is: 0.0003% added to Thromborel S heated 120° C.
The mark [22] stands for this setting: 0.003% added to Thromborel S heated 120° C.
Setting [23] is: 0.03% added to Thromborel S heated 120° C.
Where [24] appears, read: 0.3% added to Thromborel S heated 120° C.
Where [25] appears, read: 0.5 mg/l added to Thromborel S heated 95° C.

Read-outs that look alike come from different tables or passages of the source.

In the case of `Cc1ccc(S(=O)(=O)[N-]Cl)cc1.[Na+]` [chloramine T], the “Coagulation time Patho II” value turned out to be 34.2 s in the test on control plasma Patho II [1] (setting [7]), 34.7 s in the test on control plasma Patho II [1] (setting [8]) and 38.2 s in the test with control plasma Patho II [1] (setting [9]). Moreover, the “Spread Patho II/100%” value worked out at 3.0 in the test with control plasma Patho II [1] (setting [7]), 3.0 in the test with control plasma Patho II [1] (setting [8]) and 2.9 in the test on control plasma Patho II [1] (setting [9]). Further, the “Coagulation time 100%” value with Standard human plasma [2] (setting [7]) was found to be 11.5 s; in the test with Standard human plasma [2] (setting [8]), 11.7 s; in the test with Standard human plasma [2] (setting [9]) it was 13 s. The “Coagulation time FV-MP” value with FVII-deficient plasma [3] (setting [7]) was determined as 140.1 s; in the test on FVII-deficient plasma [3] (setting [8]) it was 141.6 s; in the test on FVII-deficient plasma [3] (setting [9]), 177.4 s. The “FVII-sens. FVII-MP/100%” value with FVII-deficient plasma [3] (setting [7]) is reported as 12.2; in the test on FVII-deficient plasma [3] (setting [8]) it was 12.1; in the test with FVII-deficient plasma [3] (setting [9]) it was 13.6.
For `Nc1ccc(CS(=O)(=O)F)cc1` [pa-PMSF, 4-aminophenylmethanesulfonyl fluoride], the “Coagulation time FVII-MP” value stood at 144 s in the test with FVII-deficient plasma [4] (setting [10]); 147 s with FVII-deficient plasma [4] (setting [11]); 161 s with FVII-deficient plasma [4] (setting [12]); 172 s with FVII-deficient plasma [4] (setting [13]); 298 s in the test on FVII-deficient plasma [4] (setting [14]). For the same compound, the “FVII sens.: FVII-MP/100%” value is reported as 13.6 in the test on FVII-deficient plasma [4] (setting [10]); 13.8 in the test on FVII-deficient plasma [4] (setting [11]); 15.2 in the test on FVII-deficient plasma [4] (setting [12]); 16.1 in the test with FVII-deficient plasma [4] (setting [13]); 27.6 with FVII-deficient plasma [4] (setting [14]). The “Coagulation time 100%” value in the test on Standard human plasma [5] (setting [15]) came out at 10.6 s; with Standard human plasma [5] (setting [16]), 10.6 s; in the test with Standard human plasma [5] (setting [17]), 10.6 s; in the test on Standard human plasma [5] (setting [18]) it was 10.7 s; in the test on Standard human plasma [5] (setting [19]), 10.8 s. For the same compound, the “Coagulation time Patho II” value stood at 22.3 s with control plasma Patho II [6] (setting [15]); 21.8 s in the test on control plasma Patho II [6] (setting [16]); 22.2 s with control plasma Patho II [6] (setting [17]); 21.7 s with control plasma Patho II [6] (setting [18]); 23.i in the test with control plasma Patho II [6] (setting [19]). Moreover, the “Spread: Patho II/100%” value in the test on control plasma Patho II [6] (setting [15]) was 2.1; in the test with control plasma Patho II [6] (setting [16]), 2.1; with control plasma Patho II [6] (setting [17]) it was 2.1; in the test on control plasma Patho II [6] (setting [18]), 2.0; in the test with control plasma Patho II [6] (setting [19]), 2.1.
Consider `OO` [H2O2], for which the “Coagulation time FVII-MF” value was 132 s in the test on FVII-deficient plasma [4] (setting [20]); 133 s in the test on FVII-deficient plasma [4] (setting [21]); 139 s in the test with FVII-deficient plasma [4] (setting [22]); 143 s in the test on FVII-deficient plasma [4] (setting [23]); 156 s in the test on FVII-deficient plasma [4] (setting [24]). The “FVII-sens. FVII-MP/100%” value is listed as 11.1 with FVII-deficient plasma [4] (setting [20]); 11.4 in the test with FVII-deficient plasma [4] (setting [21]); 12.2 with FVII-deficient plasma [4] (setting [22]); 12.4 in the test with FVII-deficient plasma [4] (setting [23]); 10.4 in the test with FVII-deficient plasma [4] (setting [24]). Further, the “Coagulation time 100%” value stood at 11.9 s in the test with Standard human plasma [5] (0.00003% added to Thromborel S heated 120° C., 0.75 sec, incubated 37° C., 90 min); 11.7 s in the test with Standard human plasma [5] (0.0003% added to Thromborel S heated 120° C., 0.75 sec, incubated 37° C., 90 min); 11.4 s in the test with Standard human plasma [5] (0.003% added to Thromborel S heated 120° C., 0.75 sec, incubated 37° C., 90 min); 11.5 s with Standard human plasma [5] (0.03% added to Thromborel S heated 120° C., 0.75 sec, incubated 37° C., 90 min); 15 s in the test on Standard human plasma [5] (0.3% added to Thromborel S heated 120° C., 0.75 sec, incubated 37° C., 90 min).
On to `CC(=O)N[C@@H](CC(C)C)C(=O)N[C@@H](CC(C)C)C(=O)N[C@H](C=O)CCCNC(=N)N` [Leupeptin], for which, in the test on FVII-deficient plasma [4] (setting [25]), the “Coagulation time FVII-MP” value was 121 s and the “FVII sens.: FVII-MP/100%” value is reported as 11.4. In addition, the “Coagulation time 100%” value with Standard human plasma [5] amounted to 10.6 s. Moreover, in the test on control plasma Patho II [6], the “Coagulation time Patho II” value amounted to 22.5 s and the “Spread: Patho II/100%” value turned out to be 2.1.

These data come from patent US6376209B2, “Increasing the FVII sensitivity of a thromboplastin reagent” (Dade Behring Marburg GmbH, priority 1997, dated 2002).
